The text below walks through data of US20100222304A1, “Methods of Treating Neuropathic Pain by Modulation of Glycogenolysis or Glycolysis” (priority 2006, published 2010).

The conditions of series [1]: single and multiple dose escalation; cited from earlier work.
For series [2] the following is noted: rats; cited from earlier work.
Series [3] concerns db/db mice. The settings on record: 60 mg/kg po qd, 9 days; cited from earlier work.
Series [4] has as its system human hepatocytes. Conditions: read-out: EC50, reduction of glucagon-induced glycogenolysis; cited from earlier work.
The next series relates to rat hepatocytes. The settings on record: read-out: EC50, reduction of glucagon-induced glycogenolysis; cited from earlier work.
The next series relates to healthy conscious rats. The settings on record: glucagon 10 microg/kg iv; cited from earlier work.
The subject of the next series is Male Sprague-Dawley rats. Put plainly: Mechanical allodynia induced by spinal nerve ligation (SNL) in rats. Type of series: in vivo, rat. Conditions: 30 mg/kg PO, post-SNL day 19, p<0.01 vs. vehicle. The procedure:
Male Sprague-Dawley rats (Hsd:Sprague-Dawley®SD®, Harlan, Indianapolis, Ind., U.S.A.) weighing 223±2 g on Day 14 were housed three per cage. Animals had free access to food and water and were maintained on a 12:12 h light/dark schedule for the entire duration of the study. The animal colony was maintained at 21° C. and 60% humidity. All experiments were conducted in accordance with the International Association for the Study of Pain guidelines and were approved by the University of Minnesota Animal Care and Use Committee.
The Spinal Nerve Ligation (SNL) model was used to induce chronic neuropathic pain. […]
Baseline, post-injury and post-treatment values for non-noxious mechanical sensitivity were evaluated using 8 Semmes-Weinstein filaments (Stoelting, Wood Dale, Ill., USA) with varying stiffness (0.4, 0.7, 1.2, 2.0, 3.6, 5.5, 8.5, and 15 g) according to the up-down method. […] The mean and standard error of the mean (SEM) were determined for each paw in each treatment group. […]
Statistical analyses were conducted using Prism™ 4.01 (GraphPad, San Diego, Calif., USA). Mechanical hypersensitivity of the injured paw was determined by comparing pre-SNL to post-SNL values at Day 14. Data were analyzed using the Wilcoxon test. […] Drug effect was analyzed by comparing post-vehicle and post-drug values using the Friedman test followed by a Dunn's post hoc test. […]

The test system of another series is ob/ob mice. The settings on record: 30 mg/kg po, cited from earlier work.
Series [5] concerns db/db mice. The settings on record: cited from earlier work.
Series [6] concerns Zucker diabetic fatty (ZDF) rats. The settings on record: cited from earlier work; for glucose tolerance: CS-917 300 mg/kg and/or glyburide 100 mg/kg orally, 90 min before 2 g/kg glucose, 3 h following; for insulin secretion: CS-917 300 mg/kg, glyburide 100 mg/kg orally.
Another series has as its system Tet/GSK-3-beta mice. The settings on record: cited from earlier work; for tau phosphorylation in the hippocampus: oral, 3 weeks, NP-01139 50 to 100 mg/kg/day, NP-12 100 to 200 mg/kg/day; for clinical signs: prolonged oral treatment.
The subject of the next series is ZDF rats. Conditions: cited from earlier work.
The conditions of series [7]: oral capsules 100, 200, 400 or 800 mg, 14 days; cited from earlier work.
The subject of the next series is overnight fasted rats. The settings on record: 2.5 to 40 mg/kg 1 h before liquid meal 20 kcal/kg; effect at doses over 10 mg/kg; cited from earlier work.
For another series, the system named is goto-kakizaki (GK) rats. The settings on record: cited from earlier work.
The conditions of series [8]: one oral suspension dose 2.5 to 1000 mg after overnight fast; cited from earlier work.
The test system of a further series is Female ZDF rats. Conditions: 100 mg/kg/day, 14 days; cited from earlier work.
The test system of series [9] is human hepatocytes. Conditions: human primary hepatocytes; read-out: EC50, inhibition of glucose production; cited from earlier work.
The subject of the next series is gluconeogenesis. Conditions: rat hepatocytes, isolated rat kidneys, whole animal studies; cited from earlier work.
The conditions of series [10]: cited from earlier work.
The test system of another series is patients. The settings on record: first 6 h after dosing on day 14, versus day before first dose; cited from earlier work.
Another series relates to cynomolgus monkeys. The settings on record: cited from earlier work.
Where [11] appears, read: chronic 21-day study, 10-week old ZDF rats.
Where [12] appears, read: 50, 100, 200 or 400 mg qd, 14 days.

Structures are written as SMILES. Like-named read-outs stand apart in the source and are kept apart here.

Broadly, the EC50 is the concentration needed to bring the measured effect to its halfway point.

As to `O=C(N[C@@H](Cc1ccc(F)cc1)C(=O)N1CCC(O)CC1)c1cc2cc(Cl)ncc2[nH]1` [PSN-357], in series [1], the safety and tolerability entry is “safe and well tolerated”. Further, the t1/2 in [2] was 4 h. In addition, in the series with db/db mice [3], the hyperglycemia entry is “prevented hyperglycemia”; the “increase in liver glycogen” value is on record as 57%; the “muscle glycogen, plasma insulin or alanine aminotransferase” value was “no changes”. In addition, the concentration giving a half-maximal response (EC50) with human hepatocytes [4] is 1.1 µM. Also, the 50% effective concentration (EC50) with rat hepatocytes was 1.9 µM. The “minimum effective dose, inhibition of glucagon-stimulated elevation of blood glucose” value in the series with healthy conscious rats was 3 mg/kg. The “mechanical allodynia (von Frey, up-down method)” value in the series with Male Sprague-Dawley rats is reported as “reduced mechanical allodynia”. The blood glucose levels result in the series with ob/ob mice (90 to 210 minutes post administration) was “reduced blood glucose levels”. Besides, in the series on ob/ob mice (after 5 h), the “increase in liver glycogen” value is 66%. Further, in the series with db/db mice [5] (after 5 h), the “heart and skeletal muscle glycogen” value is “remained unaffected”; the liver glycogen entry was “increase in liver glycogen”. Further, the “reduction of blood glucose” value in the series on db/db mice [5] (maintained after 5 h) is 35%.

For `COc1ccc(Cl)cc1C(=O)NCCc1ccc(S(=O)(=O)NC(=O)NC2CCCCC2)cc1` [glyburide], in series [6], the glucose tolerance entry is on record as “improved glucose tolerance” and the insulin secretion result was “positive insulin secretory response”.

Consider `Cn1sc(=O)n(Cc2ccccc2)c1=O` [NP-01139], for which, in the series on Tet/GSK-3-beta mice, the “tau phosphorylation in the hippocampus” value was “dose-dependent significant decrease” and the clinical signs result is “not showing any apparent clinical signs”.

`CCOC(=O)[C@H](C)NP(=O)(N[C@@H](C)C(=O)OCC)c1ccc(-c2nc(N)sc2CC(C)C)o1` [CS-917]: in the series with ZDF rats (setting [11]), the glucose lowering entry is recorded as “effectively lowered glucose” and the “minimum efficacious dose, glucose lowering” value is recorded as 30 mg/kg. In addition, the oral efficacy result with ZDF rats (freely feeding and 6-h fasting ZDF rats, early and advanced disease states) is recorded as “good oral efficacy”. Further, the tolerability entry in series [7] is “well tolerated with no serious adverse events”. The “AUC values of plasma glucose levels” value with overnight fasted rats is given as “significantly dose dependently decreased”. The plasma glucagons entry in the series with goto-kakizaki (GK) rats (40 mg/kg) was “increased”. In addition, the plasma glucose levels entry in the series on goto-kakizaki (GK) rats (5 to 40 mg/kg, 3 h after administration) was “dose-dependently decreased”. In addition, the “hepatic fructose 1,6-bisphosphate and fructose 6-phosphate” value in the series with goto-kakizaki (GK) rats (20 and 40 mg/kg, 4 h after administration) is on record as “increased”. Also, the tolerability entry in [8] was “well tolerated with nausea seen at 400 mg and vomiting seen at 800 and 1000 mg”. In the series with Female ZDF rats, the “hyperglycemia (blood glucose)” value is 166 ± 24 mg/dL; the “insulin levels, blood lactate, liver glycogen and liver triglycerides” value is reported as “largely unaffected”; the plasma triglycerides entry is “tended to be lowered”; the polydipsia is 15 ± 6.2 mL/day. For the same molecule, in series [6], the glucose tolerance entry is reported as “improved glucose tolerance” and the insulin secretion entry is “No stimulation of insulin secretion”. For the same molecule, the concentration giving a half-maximal response (EC50) in the series on human hepatocytes [9] is 0.3 µM. In addition, in the series on gluconeogenesis, the gluconeogenesis entry is recorded as “inhibit gluconeogenesis”. In [10] (400 mg dose), the “lactic acid AUC compared with placebo” value is on record as “increased”. For the same molecule, in series [10] (setting [12]), the “absorption, metabolism, clearance” value is “rapidly absorbed, extensively metabolized, rapidly cleared” and the tolerability result is recorded as “well tolerated with no serious adverse events”. The lactic acid profiles result in series [10] (other dose groups (50, 100, 200 mg)) is “indifferent from placebo”. In addition, the blood glucose levels result in the series on patients is “lower blood glucose levels”. Also, the plasma glucagons levels result in the series on cynomolgus monkeys (60 mg/kg) is “increased”. For the same molecule, in the series on cynomolgus monkeys (20 to 60 mg/kg, 3 h after administration), the insulin levels result is “dose-dependently decreased”.

For the molecule `CC1CC(=O)C(CC2C=CC=CC2)C1=O` (centres unmarked) [NP-12], in the series with Tet/GSK-3-beta mice, the “tau phosphorylation in the hippocampus” value is recorded as “dose-dependent significant decrease” and the clinical signs entry is “not showing any apparent clinical signs”.
